Measured values as given in patent publication US20110159520A1, “HYBRID PROTEINS COMPRISING MEMBRANE RECEPTOR AND ION CHANNEL, AND THEIR USE AS BIOSENSORS” (UNIVERSITE JOSEPH FOURIER, priority 2008, published 2011).
Each block holds one molecule with its values, some of them ahead of it.

What was measured:
[1] = tested on: CCR2 chemokine receptor fused to Kir6.2 deleted in its N-terminus part; experiment: Electric flux of CCR2-Kir6.2 fusion protein; assay type: cell-based; settings: final concentration from about 0.3 μM to about 2 μM
CCR2 chemokine receptor fused to Kir6.2 deleted in its N-terminus part, sequence (P41597 1-313 limits assumed): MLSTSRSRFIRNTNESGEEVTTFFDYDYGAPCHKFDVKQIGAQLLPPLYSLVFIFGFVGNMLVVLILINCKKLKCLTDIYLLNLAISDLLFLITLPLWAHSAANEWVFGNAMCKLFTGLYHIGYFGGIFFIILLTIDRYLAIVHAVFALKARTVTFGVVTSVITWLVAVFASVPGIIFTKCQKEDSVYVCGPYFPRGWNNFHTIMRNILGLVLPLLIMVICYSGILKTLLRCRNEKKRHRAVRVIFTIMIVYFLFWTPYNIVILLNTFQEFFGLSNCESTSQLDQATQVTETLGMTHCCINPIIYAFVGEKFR

M2−K 0-20 hybrid protein = target: T1, M2−K 0-20 hybrid protein (UniProt P08172+Q61743); experiment: TEVC recordings from xenopus oocytes expressing M2−K 0-20; assay type: cell-based, human M2, mouse Kir6.2
T1 construct: expressed in transfected cells; host or cells: Xenopus oocytes injected with cRNA
T1 sequence (P08172+Q61743 with tags, fused parts or gaps): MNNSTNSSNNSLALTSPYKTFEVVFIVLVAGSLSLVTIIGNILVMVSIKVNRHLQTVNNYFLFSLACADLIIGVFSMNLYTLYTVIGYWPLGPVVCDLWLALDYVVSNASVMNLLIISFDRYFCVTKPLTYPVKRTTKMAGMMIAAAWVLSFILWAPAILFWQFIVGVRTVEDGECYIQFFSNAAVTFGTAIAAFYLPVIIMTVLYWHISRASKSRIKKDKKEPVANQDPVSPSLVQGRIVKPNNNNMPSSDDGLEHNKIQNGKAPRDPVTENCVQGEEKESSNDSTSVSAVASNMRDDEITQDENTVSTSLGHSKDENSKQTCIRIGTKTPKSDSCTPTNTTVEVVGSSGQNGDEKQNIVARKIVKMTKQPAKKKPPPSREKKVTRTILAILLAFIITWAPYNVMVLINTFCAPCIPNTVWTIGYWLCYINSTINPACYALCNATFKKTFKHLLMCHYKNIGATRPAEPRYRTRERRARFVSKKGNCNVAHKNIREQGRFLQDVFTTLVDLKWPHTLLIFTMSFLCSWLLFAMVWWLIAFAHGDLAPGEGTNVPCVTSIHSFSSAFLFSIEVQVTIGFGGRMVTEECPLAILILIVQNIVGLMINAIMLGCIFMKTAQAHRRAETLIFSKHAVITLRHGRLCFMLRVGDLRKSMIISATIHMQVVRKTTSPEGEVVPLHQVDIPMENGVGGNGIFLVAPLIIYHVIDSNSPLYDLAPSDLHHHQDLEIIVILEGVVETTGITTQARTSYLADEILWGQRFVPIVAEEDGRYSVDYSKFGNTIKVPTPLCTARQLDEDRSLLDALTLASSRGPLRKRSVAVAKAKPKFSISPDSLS
Experimental: (§1) Whole-cell currents were measured using two-electrode voltage clamp (TEVC). Microelectrodes were filled with 3 M KCl and oocytes were bathed in a solution having (in mM): 91 KCl, 1.8 CaCl2, 1 MgCl2, 5 HEPES (pH 7.4) and 0.3 niflumic acid to block endogenous chloride current.
(§2) The TEVC voltage protocol consisted of 500-ms steps to −50, 0 and +50 mV—during which current was measured—repeated every 5 s, the holding potential being 0 mV.
(§3) Average values are presented as mean±s.e.m. Non-linear least-square curve fitting to the data points obtained at various concentrations of activating or inhibiting ligands was done using a standard Hill equation: […]
(§4) Ba^2+ was used as a generic K^+ channel blocker. Percent changes in current were calculated with respect to the baseline extrapolated from measurements of Ba^2+-sensitive currents before and after agonist application.

M2−K 0-25 hybrid protein = target: T2, M2−K 0-25 hybrid protein (UniProt P08172+Q61743); assay type: cell-based, human M2, mouse Kir6.2
T2 construct: expressed in transfected cells; host or cells: Xenopus oocytes injected with cRNA (whole-cell TEVC, or outside-out patches excised from them)
T2 sequence (P08172+Q61743 with tags, fused parts or gaps): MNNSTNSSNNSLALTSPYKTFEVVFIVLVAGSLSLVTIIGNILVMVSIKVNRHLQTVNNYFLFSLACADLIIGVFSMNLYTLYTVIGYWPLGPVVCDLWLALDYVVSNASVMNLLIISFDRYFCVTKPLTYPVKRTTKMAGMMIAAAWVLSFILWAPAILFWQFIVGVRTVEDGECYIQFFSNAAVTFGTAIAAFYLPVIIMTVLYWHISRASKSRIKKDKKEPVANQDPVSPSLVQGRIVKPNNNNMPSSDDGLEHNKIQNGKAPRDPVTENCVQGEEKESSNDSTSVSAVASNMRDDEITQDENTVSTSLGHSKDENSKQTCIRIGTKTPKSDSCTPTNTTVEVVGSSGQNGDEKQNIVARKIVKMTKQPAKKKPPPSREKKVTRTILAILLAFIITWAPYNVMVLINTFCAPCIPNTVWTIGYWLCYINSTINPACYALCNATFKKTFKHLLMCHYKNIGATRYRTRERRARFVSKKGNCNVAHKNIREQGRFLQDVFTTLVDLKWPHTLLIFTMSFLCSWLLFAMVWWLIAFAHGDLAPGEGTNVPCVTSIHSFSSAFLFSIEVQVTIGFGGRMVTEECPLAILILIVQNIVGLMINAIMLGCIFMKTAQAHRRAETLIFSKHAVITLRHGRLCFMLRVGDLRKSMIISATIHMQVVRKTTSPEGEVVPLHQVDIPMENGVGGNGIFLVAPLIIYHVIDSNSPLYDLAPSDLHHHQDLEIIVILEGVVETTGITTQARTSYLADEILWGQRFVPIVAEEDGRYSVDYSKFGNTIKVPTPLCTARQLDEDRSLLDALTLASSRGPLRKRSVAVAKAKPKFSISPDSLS
Experimental: Xenopus oocytes defoliculated by collagenase treatment were microinjected with 50 nl of water containing one or a mixture of the following quantities of cRNA:
Oocytes were incubated in individual wells in Barth's solution (KCl 1 mM, MgSO4 0.82 mM, NaCl 88 mM, NaHCO3 2.4 mM, CaCl2 0.41 mM, Ca(NO3)2 0.3 mM, Hepes 16 mM, pH 7.4) supplemented with 100 U·ml^−1 penicillin, 100 μg ml^−1 streptomycin and […] gentamycin, for at least 48 hrs at 19° C. before characterization.
as §1
Unless otherwise specified, the concentration of M2 ligands was 5 μM.
as §2, §3
Ba^2+ was used as a generic K^+ channel blocker. Percent changes in current were calculated with respect to the baseline extrapolated from measurements of Ba^2+-sensitive currents before and after agonist application. This method emphasizes reversibility and provides an underestimate of the true effects. For dose-response data, which were acquired by applying sequentially increasing concentrations of modulator to the same patch or oocyte, changes in current could only be measured with respect to the current before application, yielding somewhat larger values.

D2-K 0-25 hybrid protein = D2-K 0-25 hybrid protein (UniProt P14416+Q61743); settings: sulpiride 5 μM during quinpirole 5 μM
D2-K 0-25 hybrid protein, sequence (P14416+Q61743 fused): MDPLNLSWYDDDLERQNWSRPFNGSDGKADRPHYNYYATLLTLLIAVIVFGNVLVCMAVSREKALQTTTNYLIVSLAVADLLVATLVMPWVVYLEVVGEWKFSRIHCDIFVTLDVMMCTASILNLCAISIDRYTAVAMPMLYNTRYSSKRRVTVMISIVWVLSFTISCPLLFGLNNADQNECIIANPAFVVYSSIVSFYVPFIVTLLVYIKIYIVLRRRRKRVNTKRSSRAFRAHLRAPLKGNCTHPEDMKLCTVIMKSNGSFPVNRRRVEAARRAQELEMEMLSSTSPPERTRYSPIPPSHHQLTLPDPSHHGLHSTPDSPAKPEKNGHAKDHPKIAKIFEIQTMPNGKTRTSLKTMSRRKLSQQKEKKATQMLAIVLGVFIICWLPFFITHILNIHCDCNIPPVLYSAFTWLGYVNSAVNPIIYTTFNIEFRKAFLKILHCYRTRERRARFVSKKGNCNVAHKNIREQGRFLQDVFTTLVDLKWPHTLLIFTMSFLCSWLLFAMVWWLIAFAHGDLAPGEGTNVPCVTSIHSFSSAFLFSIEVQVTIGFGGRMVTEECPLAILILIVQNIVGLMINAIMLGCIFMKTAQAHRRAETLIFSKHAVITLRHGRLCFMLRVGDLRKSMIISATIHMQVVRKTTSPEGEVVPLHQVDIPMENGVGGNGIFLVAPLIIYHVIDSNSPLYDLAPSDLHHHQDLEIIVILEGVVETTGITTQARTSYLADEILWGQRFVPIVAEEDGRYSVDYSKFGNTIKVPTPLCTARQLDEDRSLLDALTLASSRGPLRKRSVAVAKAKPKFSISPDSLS
Experimental: as §1, §2, §3, §4

- generation of electric flux after stimulating the receptor [1]: generation of an electric flux
Molecule: CCL2: CCR2 agonist: CCL2 or MCP1

Molecule: CN1[C@@H]2CC[C@H]1C[C@@H](OC(=O)C(CO)c1ccccc1)C2 (stereo partly shown) [atropine]
- effect of antagonist on ACh-induced current (M2−K 0-20 hybrid protein; atropine 1 μM with ACh 5 μM): inhibits the ACh-induced current
- effect of antagonist on ACh-induced current (M2−K 0-25 hybrid protein): inhibits the ACh-induced current

- change of current induced by CCh (dose response) (M2−K 0-20 hybrid protein; increasing CCh concentrations): stimulated, in a dose-dependent manner
- change of current induced by CCh (dose response) (M2−K 0-25 hybrid protein; increasing CCh concentrations, M2−K 0-25): stimulated, in a dose-dependent manner
Molecule: C[N+](C)(C)CCOC(N)=O [CCh, carbachol]

- effect of antagonist on quinpirole-induced decrease in current (D2-K 0-25 hybrid protein): reversed
Molecule: CCN1CCCC1CNC(=O)c1cc(S(N)(=O)=O)ccc1OC (stereo not shown) [sulpiride]

- sensitivity of M2−K 0-25 to Dopa (M2−K 0-25 hybrid protein; Dopa 5 μM, TEVC): insensitive
Molecule: NCCc1ccc(O)c(O)c1 [Dopamine]
